Measured values published in PubChem BioAssay AID248 (DTP/NCI, 2004).
Where “and” joins values, the source holds several entries; their conditions need not be identical. Identical values can stand only once. Inconclusive results and toxic doses are left out. No stated cut-off is given here; in the data, active means T/C of 150% or more; inactive means T/C below 125%.

Tested on: L1210 leukemia ip in BDF1 mice, survival T/C
Assay: NCI In Vivo Anticancer Drug Screen. Data for tumor model L1210 Leukemia (intraperitoneal) in B6D2F1 (BDF1) mice
Settings: endpoint: mean survival time, higher = longer survival
In short: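 Transplantable tumor model; survival measured in treated vs vehicle control mice. Value = treated/control.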

[1] = dose: 100.0 mg/kg/injection, schedule: Q01DX001 (ip), vehicle: other
[2] = dose: 200.0 mg/kg/injection, schedule: Q01DX001 (ip), vehicle: other
[3] = dose: 75.0 mg/kg/injection, schedule: Q01DX001 (ip), vehicle: other
[4] = dose: 50.0 mg/kg/injection, schedule: Q04DX003 (ip), vehicle: saline
[5] = dose: 100.0 mg/kg/injection, schedule: Q01DX001 (ip), vehicle: saline
[6] = dose: 100.0 mg/kg/injection, schedule: Q01DX009 (ip), vehicle: saline
[7] = dose: 100.0 mg/kg/injection, schedule: Q04DX003 (ip), vehicle: saline
[8] = dose: 200.0 mg/kg/injection, schedule: Q01DX001 (ip), vehicle: saline
[9] = dose: 200.0 mg/kg/injection, schedule: Q01DX009 (ip), vehicle: saline
[10] = dose: 200.0 mg/kg/injection, schedule: Q04DX003 (ip), vehicle: saline
[11] = dose: 6.25 mg/kg/injection, schedule: Q01DX009 (ip), vehicle: Klucel (hydroxypropylcellulose) (HPC)
[12] = dose: 12.5 mg/kg/injection, schedule: Q01DX009 (ip), vehicle: Klucel (hydroxypropylcellulose) (HPC)
[13] = dose: 25.0 mg/kg/injection, schedule: Q01DX009 (ip), vehicle: Klucel (hydroxypropylcellulose) (HPC)
[14] = dose: 100.0 mg/kg/injection, schedule: Q01DX009 (ip), vehicle: Klucel (hydroxypropylcellulose) (HPC)
[15] = dose: 200.0 mg/kg/injection, schedule: Q01DX009 (ip), vehicle: Klucel (hydroxypropylcellulose) (HPC)
[16] = dose: 100.0 mg/kg/injection, schedule: Q04DX002 (ip), vehicle: Klucel (hydroxypropylcellulose) (HPC)
[17] = dose: 100.0 mg/kg/injection, schedule: Q04DX003 (ip), vehicle: Klucel (hydroxypropylcellulose) (HPC)
[18] = dose: 200.0 mg/kg/injection, schedule: Q04DX002 (ip), vehicle: Klucel (hydroxypropylcellulose) (HPC)
[19] = dose: 200.0 mg/kg/injection, schedule: Q04DX003 (ip), vehicle: Klucel (hydroxypropylcellulose) (HPC)
[20] = dose: 400.0 mg/kg/injection, schedule: Q04DX002 (ip), vehicle: Klucel (hydroxypropylcellulose) (HPC)
[21] = dose: 400.0 mg/kg/injection, schedule: Q04DX003 (ip), vehicle: Klucel (hydroxypropylcellulose) (HPC)
[22] = dose: 400.0 mg/kg/injection, schedule: Q04DX003 (ip), vehicle: saline

Measured: T/C

O=C(O)CNc1cc(S(=O)(=O)O)cc2cc(S(=O)(=O)O)c(N=Nc3cc(S(=O)(=O)O)cc4cc(S(=O)(=O)O)cc(O)c34)c(O)c12
inactive: [1] 101 % of control | [2] 104 % of control

NC(N)=NCCCC(NC(=O)c1ccccc1)C(=O)O (stereo not given)
inactive: [1] 104 % of control | dose: 100.0 mg/kg/injection, schedule: Q01DX009 (ip), vehicle: other 101 % of control | dose: 100.0 mg/kg/injection, schedule: Q04DX003 (ip), vehicle: other 93 % of control | [2] 100 % of control | dose: 200.0 mg/kg/injection, schedule: Q01DX009 (ip), vehicle: other 107 % of control | dose: 200.0 mg/kg/injection, schedule: Q04DX003 (ip), vehicle: other 90 % of control | dose: 400.0 mg/kg/injection, schedule: Q01DX001 (ip), vehicle: other 100 % of control | dose: 400.0 mg/kg/injection, schedule: Q01DX009 (ip), vehicle: other 100 % of control | dose: 400.0 mg/kg/injection, schedule: Q04DX003 (ip), vehicle: other 96 % of control

CC(C)(C)c1nc2cc(Cl)c(Cl)cc2[nH]1
inactive: [3] 102 % of control | dose: 75.0 mg/kg/injection, schedule: Q01DX009 (ip), vehicle: saline with Tween-80 96 % of control | dose: 75.0 mg/kg/injection, schedule: Q04DX003 (ip), vehicle: saline with Tween-80 103 % of control | dose: 150.0 mg/kg/injection, schedule: Q01DX001 (ip), vehicle: other 96 % of control | dose: 150.0 mg/kg/injection, schedule: Q01DX009 (ip), vehicle: saline with Tween-80 90 % of control | dose: 150.0 mg/kg/injection, schedule: Q04DX003 (ip), vehicle: saline with Tween-80 110 % of control | dose: 300.0 mg/kg/injection, schedule: Q01DX001 (ip), vehicle: other 109 % of control | dose: 300.0 mg/kg/injection, schedule: Q01DX009 (ip), vehicle: saline with Tween-80 103 % of control | dose: 300.0 mg/kg/injection, schedule: Q04DX003 (ip), vehicle: saline with Tween-80 107 % of control

CC(=O)[C@H]1CC[C@H]2[C@@H]3C[C@H](C)C4=CC(=O)CC[C@]4(C)[C@H]3[C@@H](O)C[C@]12C
inactive: dose: 50.0 mg/kg/injection, schedule: Q01DX009 (ip), vehicle: saline 100 % of control | dose: 50.0 mg/kg/injection, schedule: Q01DX Z (sc), vehicle: steriod suspending solution 106 % of control | [4] 95 % of control | [5] 93 % of control | [6] 94 % of control | dose: 100.0 mg/kg/injection, schedule: Q01DX Z (sc), vehicle: steriod suspending solution 103 % of control | [7] 103 % of control | [8] 104 % of control | [9] 102 % of control | dose: 200.0 mg/kg/injection, schedule: Q01DX Z (sc), vehicle: steriod suspending solution 103 % of control | [10] 102 % of control | dose: 400.0 mg/kg/injection, schedule: Q01DX Z (sc), vehicle: steriod suspending solution 98 % of control

Cc1cc(=O)oc2c(OS(C)(=O)=O)c(OS(C)(=O)=O)ccc12
inactive: [11] 100 % of control | [12] 100 % of control | [13] 96 % of control and 100 % of control | dose: 50.0 mg/kg/injection, schedule: Q01DX009 (ip), vehicle: Klucel (hydroxypropylcellulose) (HPC) 94 % of control and 88 % of control | [14] 97 % of control | [15] 105 % of control

C/C(N)=C\C#N
inactive: dose: 50.0 mg/kg/injection, schedule: Q01DX001 (ip), vehicle: saline 91 % of control

O=[n+]1c2c(n([O-])c3ccccc31)-c1cccc3cccc-2c13
inactive: [4] 96 % of control | [5] 88 % of control | [7] 93 % of control | dose: 125.0 mg/kg/injection, schedule: Q01DX Z (ip), vehicle: methylcellulose (MC) 98 % of control | [8] 94 % of control | [10] 93 % of control

COc1cc([N+](=O)[O-])ccc1NC(=O)OCC(Cl)(Cl)Cl
inactive: dose: 100.0 mg/kg/injection, schedule: Q01DX001 (ip), vehicle: Klucel (hydroxypropylcellulose) (HPC) 98 % of control | [14] 93 % of control and 92 % of control | [16] 95 % of control and 102 % of control | [17] 99 % of control | dose: 200.0 mg/kg/injection, schedule: Q01DX001 (ip), vehicle: Klucel (hydroxypropylcellulose) (HPC) 100 % of control | [15] 103 % of control and 92 % of control | [18] 98 % of control and 111 % of control | [19] 94 % of control | dose: 400.0 mg/kg/injection, schedule: Q01DX001 (ip), vehicle: Klucel (hydroxypropylcellulose) (HPC) 96 % of control | dose: 400.0 mg/kg/injection, schedule: Q01DX009 (ip), vehicle: Klucel (hydroxypropylcellulose) (HPC) 109 % of control and 88 % of control | [20] 95 % of control and 98 % of control | [21] 105 % of control

Cc1nc2ccc(Cl)c(Cl)c2s1
inactive: dose: 100.0 mg/kg/injection, schedule: Q01DX001 (ip), vehicle: saline with Tween-80 106 % of control | dose: 200.0 mg/kg/injection, schedule: Q01DX001 (ip), vehicle: saline with Tween-80 104 % of control | dose: 400.0 mg/kg/injection, schedule: Q01DX001 (ip), vehicle: saline with Tween-80 100 % of control

CCCNC(=O)NC1CCCCC1
inactive: dose: 264.0 mg/kg/injection, schedule: Q01DX001 (ip), vehicle: carboxymethylcellulose (CMC) 101 % of control | dose: 400.0 mg/kg/injection, schedule: Q01DX001 (ip), vehicle: carboxymethylcellulose (CMC) 90 % of control | dose: 600.0 mg/kg/injection, schedule: Q01DX001 (ip), vehicle: carboxymethylcellulose (CMC) 98 % of control

BrC(c1ccccc1)C(Br)[n+]1ccccc1 (stereo not given)
inactive: [3] 107 % of control

Cc1cccc(C)c1C(Cl)CS(=O)(=O)c1ccccc1 (stereo not given)
inactive: [17] 102 % of control | [19] 107 % of control | [21] 107 % of control

C[N+]12CN3CN(C1)S(=O)(=O)N(C3)C2
inactive: [6] 107 % of control | [7] 95 % of control | [9] 108 % of control | [10] 97 % of control | dose: 400.0 mg/kg/injection, schedule: Q01DX009 (ip), vehicle: saline 110 % of control | [22] 103 % of control

Cn1c(=O)c2n[se]nc2n(C)c1=O
inactive: dose: 3.12 mg/kg/injection, schedule: Q01DX009 (ip), vehicle: Klucel (hydroxypropylcellulose) (HPC) 91 % of control | dose: 3.12 mg/kg/injection, schedule: Q04DX002 (ip), vehicle: Klucel (hydroxypropylcellulose) (HPC) 102 % of control | [11] 94 % of control | dose: 6.25 mg/kg/injection, schedule: Q04DX002 (ip), vehicle: Klucel (hydroxypropylcellulose) (HPC) 105 % of control | dose: 12.5 mg/kg/injection, schedule: Q04DX002 (ip), vehicle: Klucel (hydroxypropylcellulose) (HPC) 108 % of control and 111 % of control | dose: 25.0 mg/kg/injection, schedule: Q04DX002 (ip), vehicle: Klucel (hydroxypropylcellulose) (HPC) 108 % of control

O=S(=O)(O)C(I)(I)S(=O)(=O)O
inactive: [7] 99 % of control | [10] 100 % of control | [22] 95 % of control

COc1ccc(/C=C/c2cccc[n+]2C)cc1
inactive: [12] 89 % of control | dose: 12.5 mg/kg/injection, schedule: Q04DX003 (ip), vehicle: Klucel (hydroxypropylcellulose) (HPC) 100 % of control | [13] 90 % of control | dose: 25.0 mg/kg/injection, schedule: Q04DX003 (ip), vehicle: Klucel (hydroxypropylcellulose) (HPC) 94 % of control | dose: 50.0 mg/kg/injection, schedule: Q04DX003 (ip), vehicle: Klucel (hydroxypropylcellulose) (HPC) 100 % of control

Cc1ccc(Cl)cc1NC(=O)CCc1ccccc1
inactive: [16] 91 % of control | [18] 94 % of control | [20] 91 % of control
